This note sets out measurements from PubChem BioAssay (NCI).

Each structure is given as a SMILES string.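 Each compound was tested at five concentrations against cells in 96-well plates for 48 hours. At the TGI there is no net growth.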

Among the test systems are NCI-H23 lung; MOLT-4 leukemia; HT29 colon; ACHN renal; OVCAR-8 ovarian; A549 NSCLC; SW-620 colon; HCT-116 colon; PC-3 prostate; OVCAR-4 ovarian; DU-145 prostate; CAKI-1 renal; HCT-15 colon; RPMI-8226 leukemia; M14 melanoma; SK-MEL-2 melanoma; BT-549 breast; SN12C renal; T-47D breast; MCF7 breast.
Holding throughout (experiment): NCI tumour cell line growth inhibition, 48 h

In the case of `CCCc1c(O)nc(Nc2nc3ccccc3[nH]2)[nH]c1=O`, the TGI in the test on NCI-H23 lung, in the test on MOLT-4 leukemia, with HT29 colon, with ACHN renal, in the test with OVCAR-8 ovarian and with A549 NSCLC was over 100 µM in each case. Further, the TGI in the test with SW-620 colon, in the test on HCT-116 colon, in the test with PC-3 prostate, with OVCAR-4 ovarian, with DU-145 prostate and with CAKI-1 renal was over 100 µM in each case. For the same molecule, the TGI in the test with HCT-15 colon, in the test with RPMI-8226 leukemia, in the test on M14 melanoma, in the test with SK-MEL-2 melanoma, in the test on BT-549 breast and in the test on SN12C renal was over 100 µM in each case. Also, the TGI in the test with T-47D breast is over 100 µM.

As for `C[C@@H](c1ccccc1)n1c(N)c(C#N)c2ccc([N+](=O)[O-])cc2c1=O`, the TGI in the test with NCI-H23 lung was 43 µM; in the test on HT29 colon, 28.1 µM; in the test with ACHN renal it was 29.5 µM; in the test with OVCAR-8 ovarian, 30.6 µM; in the test on A549 NSCLC, over 100 µM; in the test on SW-620 colon, 48.3 µM. The TGI was 28.8 µM in the test with HCT-116 colon; over 100 µM in the test on PC-3 prostate; 35.7 µM in the test with OVCAR-4 ovarian; 33 µM with DU-145 prostate; 39.3 µM in the test with CAKI-1 renal; 28.2 µM in the test with HCT-15 colon. Besides, the TGI in the test on SK-MEL-2 melanoma is over 100 µM; in the test with BT-549 breast it was 30 µM; in the test on SN12C renal, 28.4 µM; in the test with T-47D breast, 51.1 µM.

`Nc1nc(-c2ccccc2)cc(-c2ccc(OCc3ccccc3)cc2O)n1`: the TGI with NCI-H23 lung, in the test with MOLT-4 leukemia, in the test with HT29 colon, in the test with ACHN renal, with MCF7 breast and in the test on OVCAR-8 ovarian was over 100 µM in each case. The TGI in the test with A549 NSCLC, in the test with SW-620 colon, with HCT-116 colon, in the test with PC-3 prostate, with OVCAR-4 ovarian and in the test with DU-145 prostate was over 100 µM throughout. The TGI in the test on CAKI-1 renal is over 100 µM; in the test on HCT-15 colon it was over 100 µM; in the test on RPMI-8226 leukemia, 60.9 µM; with M14 melanoma it was over 100 µM; in the test on SK-MEL-2 melanoma it was over 100 µM; in the test with BT-549 breast, over 100 µM. Moreover, the TGI with SN12C renal was over 100 µM.

Take `CCCCCCCCCCCCCCCC(=O)OCC(C[As](=O)(O)O)OC(=O)CCCCCCCCCCCCCCC` (stereo not drawn): the TGI in the test with NCI-H23 lung, with MOLT-4 leukemia, in the test on HT29 colon, in the test on ACHN renal, with MCF7 breast and in the test with OVCAR-8 ovarian was over 100 µM each time. Also, the TGI with A549 NSCLC, in the test with SW-620 colon, in the test with HCT-116 colon, in the test on PC-3 prostate, in the test on OVCAR-4 ovarian and in the test on CAKI-1 renal was over 100 µM each time. Further, the TGI with HCT-15 colon, in the test with RPMI-8226 leukemia, with M14 melanoma, in the test on SK-MEL-2 melanoma, in the test with BT-549 breast and in the test with SN12C renal was over 100 µM each time. This molecule also yielded a TGI in the test with T-47D breast of over 100 µM.

In the case of `CCOC(=O)Cc1nc2cc(F)c(F)cc2[nH]c1=O`, the TGI in the test on NCI-H23 lung, in the test with MOLT-4 leukemia, in the test on HT29 colon, in the test with ACHN renal, in the test with MCF7 breast and in the test on OVCAR-8 ovarian was over 100 µM in each case. Besides, the TGI in the test on A549 NSCLC, in the test with SW-620 colon, in the test on HCT-116 colon, in the test with PC-3 prostate, in the test with OVCAR-4 ovarian and in the test on DU-145 prostate was over 100 µM in each case. In addition, the TGI with CAKI-1 renal, with HCT-15 colon, in the test with RPMI-8226 leukemia, in the test with M14 melanoma, in the test on SK-MEL-2 melanoma and in the test with BT-549 breast was over 100 µM throughout. The molecule further yielded a TGI with SN12C renal of over 100 µM.

For `CCOc1ncn(-c2ccc(NC(=S)NC3OC(CO)C(O)C(O)C3O)cc2)n1` (stereo not drawn), the TGI in the test with NCI-H23 lung, with MOLT-4 leukemia, in the test on HT29 colon, in the test with MCF7 breast, in the test with OVCAR-8 ovarian and with A549 NSCLC was over 100 µM throughout. The TGI with SW-620 colon, in the test with HCT-116 colon, with PC-3 prostate, in the test with OVCAR-4 ovarian, with DU-145 prostate and in the test with HCT-15 colon was over 100 µM each time. For the same molecule, the TGI in the test on RPMI-8226 leukemia, in the test on M14 melanoma, in the test on BT-549 breast, with SN12C renal and in the test on T-47D breast was over 100 µM each time.

With `N#C/C(=C/NC(N)=S)C(N)=O`, the TGI in the test with NCI-H23 lung, in the test on HT29 colon, with ACHN renal, in the test on MCF7 breast, with OVCAR-8 ovarian and in the test with A549 NSCLC was over 100 µM throughout. The TGI in the test on SW-620 colon, with HCT-116 colon, with OVCAR-4 ovarian, in the test on DU-145 prostate, in the test on CAKI-1 renal and in the test on HCT-15 colon was over 100 µM each time. Also, the TGI with M14 melanoma, with SK-MEL-2 melanoma, in the test on BT-549 breast, with SN12C renal and in the test with T-47D breast was over 100 µM in each case.

For the molecule `CC(C)=C[C@H]1CCC2(OCCO2)[C@]1(C)CO`, the TGI in the test on NCI-H23 lung, in the test on ACHN renal, in the test on MCF7 breast, with OVCAR-8 ovarian, in the test on A549 NSCLC and with SW-620 colon was over 100 µM in each case. For the same molecule, the TGI in the test with HCT-116 colon, with PC-3 prostate, in the test on OVCAR-4 ovarian, with CAKI-1 renal, with HCT-15 colon and in the test with RPMI-8226 leukemia was over 100 µM each time. The TGI in the test with M14 melanoma, in the test with SK-MEL-2 melanoma, with BT-549 breast, with SN12C renal and in the test with T-47D breast was over 100 µM throughout.
